Experimental data reported in US4277477A, “Method of using 1,2-benzisothiazoles” (BASF Aktiengesellschaft, priority 1977, dated 1981).
Where a name gives a salt, the structure may show the parent alone.

Experiments:
[1] = system: Aconitineinduced arrhythmia in rats; assay: in vivo; format: in vivo, rats (Sprague Dawley); conditions: oral
Description: (§1) The anti-arrhythmic activity of the compounds is determined by orally administering these to rats (Sprague Dawley, weight: 180-240 g) 45 minutes before the start of narcosis (100 mg/kg of thiobutabarbital, administered intraperitoneally).
(§2) The arrhythmogenous substance used was aconitine, administered by intravenous infusion (at the rate of 0.005 mg/kg. minute) 60 minutes after administration of the benzisothiazole derivative.
(§3) for a quantitative evaluation of the linear relation between the logarithm of the dose (mg/kg) of the test substances and the relative increase in the duration of infusion of aconitine (Δ%), the dose which increases the duration of infusion by 50% (ED 50%) was determined.

in vivo = format: in vivo, rats (Sprague Dawley); conditions: rat, in vivo; rats, oral; read-out: Maximum effect, Dose (maximum nontoxic dose)
Description: as §1, §2, §3

female Swiss mice = conditions: LD 50 mice i.p. / ED 50% rats oral
Description: The acute toxicity was determined on groups of 10 or 20 female Swiss mice weighing 20-26 g, using intraperitoneal administration.

| SMILES | antiarrhythmic activity, times greater than that of procainamide [1] | MTD (in vivo) [mg/kg] | therapeutic range (LD 50/ED 50%), times greater than for procainamide (female Swiss mice) [times] | Antiarrhythmic effect, R.E. (relative effect; procainamide = 1.00) ([1]; relative to procainamide) |
| --- | --- | --- | --- | --- |
| c1ccc2c(-c3ccc(C4=NCCCN4)cc3)nsc2c1 [Example 2, 3-[4'-(Tetrahydropyrimidin-2"-yl)-phenyl]-1,2-benzisothiazole hydrochloride] | about 5 times | 215 | 4 | – |
| CC1CN=C(c2ccc(-c3nsc4ccccc34)cc2)N1 (centres unmarked) [Example 3, 3-[4'-(Methylimidazolin-2"-yl)-phenyl]-1,2-benzisothiazole hydrochloride] | about 5 times | 215 | 2.8 | 4.80 |
| CCN(CC)CCNC(=O)c1ccc(N)cc1 [Procainamide, procainamide, reference compound] | – | 681 | – | – |
